Measurements published in patent publication US10125098B2, “Therapeutic compounds and methods of use thereof” (GENENTECH, INC., priority 2014, dated 2018).
Where a name gives a salt, the structure may show the parent alone. Read-outs that look alike come from different tables or passages of the source.

What was measured:
hNav1.7 = target: T1, hNav1.7 (Homo sapiens, UniProt Q15858); test: Tritiated compound binding (LBA) to membranes from cells expressing hNav1.7 and the β1 subunit, competitive binding; conditions: competitive binding vs 100 pM [3H]compound, 18 h, room temperature, membranes with hNav1.7 and β1 subunit
T1 construct: expressed in transfected cells
Procedure, shortened: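 Membranes from cells expressing hNav1.7 with β1 were incubated 18 h at room temperature with 100 pM tritiated formula (I) compound and increasing test compound, in 100 mM NaCl, 20 mM Tris HCl pH 7.4, 0.01% BSA.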

human NaV1.7 = target: T2, human NaV1.7 (Homo sapiens, UniProt Q15858); test: Patch voltage clamp electrophysiology assay (EP), NaV1.7; type: cell-based; conditions: HEK-293 cells stably expressing NaV1.7 with β1 subunit; whole-cell patch clamp, membrane potential −60 mV (inactivated state)
T2 construct: permanently transfected with an expression vector containing the full-length cDNA coding for the desired human sodium channel α-subunit; expressed in transfected cells; host or cells: HEK-293
Procedure, shortened: (§1)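 HEK-293 cells stably expressing human α-subunit with β1; whole-cell patch clamp (PatchXpress or manual), ambient temperature, pH 7.4 external NaCl, CsF internal. Held at −60 mV (full inactivation), stepped to −150 mV for 20 ms, then test pulse; percent current decrease after compound wash-on taken as block.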

NaV1.5 = target: T3, NaV1.5 (Homo sapiens, UniProt Q14524); test: Patch voltage clamp electrophysiology assay (EP), NaV1.5; type: cell-based; conditions: HEK-293 cells stably expressing NaV1.5 with β1 subunit, whole-cell patch clamp, membrane potential −60 mV (inactivated state)
T3 construct: permanently transfected with an expression vector containing the full-length cDNA coding for the desired human sodium channel α-subunit; expressed in transfected cells; host or cells: HEK-293
Procedure, shortened: as §1

[1] = human, HEK-293 cells stably expressing human NaV1.5 with β1 subunit, pH 7.4

T3 sequence (Q14524 whole entry): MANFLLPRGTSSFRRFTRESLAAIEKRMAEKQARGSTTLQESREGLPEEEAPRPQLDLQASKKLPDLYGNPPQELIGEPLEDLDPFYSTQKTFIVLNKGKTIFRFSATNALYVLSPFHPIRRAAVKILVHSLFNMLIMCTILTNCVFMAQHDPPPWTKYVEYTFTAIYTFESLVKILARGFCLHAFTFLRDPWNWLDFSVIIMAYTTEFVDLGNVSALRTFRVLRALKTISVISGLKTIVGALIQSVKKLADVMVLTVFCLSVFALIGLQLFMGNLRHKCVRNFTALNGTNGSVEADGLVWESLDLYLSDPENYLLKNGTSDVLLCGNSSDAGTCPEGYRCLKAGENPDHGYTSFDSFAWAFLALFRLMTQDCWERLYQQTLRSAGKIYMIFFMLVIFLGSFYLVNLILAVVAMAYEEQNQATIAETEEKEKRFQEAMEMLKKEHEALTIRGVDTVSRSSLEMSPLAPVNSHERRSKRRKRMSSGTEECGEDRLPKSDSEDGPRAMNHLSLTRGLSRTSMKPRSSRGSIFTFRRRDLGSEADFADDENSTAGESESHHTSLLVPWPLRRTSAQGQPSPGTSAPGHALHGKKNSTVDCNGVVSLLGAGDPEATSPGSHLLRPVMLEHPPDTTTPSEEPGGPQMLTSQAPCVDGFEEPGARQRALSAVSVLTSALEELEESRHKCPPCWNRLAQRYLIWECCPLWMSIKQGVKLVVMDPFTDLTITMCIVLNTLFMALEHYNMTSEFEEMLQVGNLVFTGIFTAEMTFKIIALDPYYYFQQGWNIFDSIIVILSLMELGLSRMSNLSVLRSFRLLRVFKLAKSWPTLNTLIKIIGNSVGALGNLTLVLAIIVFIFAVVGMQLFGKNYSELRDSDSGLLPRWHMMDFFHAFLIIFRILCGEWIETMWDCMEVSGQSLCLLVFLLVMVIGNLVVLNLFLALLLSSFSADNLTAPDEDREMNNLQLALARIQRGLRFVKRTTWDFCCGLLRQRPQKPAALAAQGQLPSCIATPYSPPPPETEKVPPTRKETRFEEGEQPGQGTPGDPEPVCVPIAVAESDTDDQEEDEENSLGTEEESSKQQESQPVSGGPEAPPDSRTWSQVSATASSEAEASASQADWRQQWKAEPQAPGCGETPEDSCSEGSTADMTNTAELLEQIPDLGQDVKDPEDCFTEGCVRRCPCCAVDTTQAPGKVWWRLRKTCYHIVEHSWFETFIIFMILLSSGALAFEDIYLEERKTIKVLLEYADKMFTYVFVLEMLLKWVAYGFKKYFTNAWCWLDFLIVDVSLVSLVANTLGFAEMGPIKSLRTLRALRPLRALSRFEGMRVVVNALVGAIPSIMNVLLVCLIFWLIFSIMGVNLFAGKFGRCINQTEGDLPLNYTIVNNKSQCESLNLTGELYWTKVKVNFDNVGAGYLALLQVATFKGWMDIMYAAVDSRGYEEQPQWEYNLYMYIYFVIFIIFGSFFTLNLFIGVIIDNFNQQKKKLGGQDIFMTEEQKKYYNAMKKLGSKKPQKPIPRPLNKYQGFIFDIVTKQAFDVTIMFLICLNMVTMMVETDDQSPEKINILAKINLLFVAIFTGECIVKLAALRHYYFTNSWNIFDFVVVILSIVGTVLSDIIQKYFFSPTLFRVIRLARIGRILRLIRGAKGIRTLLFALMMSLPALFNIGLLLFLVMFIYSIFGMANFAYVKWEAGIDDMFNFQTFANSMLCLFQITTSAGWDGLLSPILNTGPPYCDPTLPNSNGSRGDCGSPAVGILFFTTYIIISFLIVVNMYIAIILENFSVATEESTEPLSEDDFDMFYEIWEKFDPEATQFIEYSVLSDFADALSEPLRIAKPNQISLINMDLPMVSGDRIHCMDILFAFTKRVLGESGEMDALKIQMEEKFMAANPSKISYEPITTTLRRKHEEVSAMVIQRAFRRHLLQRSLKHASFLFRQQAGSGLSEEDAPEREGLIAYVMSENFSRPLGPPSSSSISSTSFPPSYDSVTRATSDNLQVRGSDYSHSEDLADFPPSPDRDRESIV
T1 sequence (Q15858 1-1977 isoform Q15858-3): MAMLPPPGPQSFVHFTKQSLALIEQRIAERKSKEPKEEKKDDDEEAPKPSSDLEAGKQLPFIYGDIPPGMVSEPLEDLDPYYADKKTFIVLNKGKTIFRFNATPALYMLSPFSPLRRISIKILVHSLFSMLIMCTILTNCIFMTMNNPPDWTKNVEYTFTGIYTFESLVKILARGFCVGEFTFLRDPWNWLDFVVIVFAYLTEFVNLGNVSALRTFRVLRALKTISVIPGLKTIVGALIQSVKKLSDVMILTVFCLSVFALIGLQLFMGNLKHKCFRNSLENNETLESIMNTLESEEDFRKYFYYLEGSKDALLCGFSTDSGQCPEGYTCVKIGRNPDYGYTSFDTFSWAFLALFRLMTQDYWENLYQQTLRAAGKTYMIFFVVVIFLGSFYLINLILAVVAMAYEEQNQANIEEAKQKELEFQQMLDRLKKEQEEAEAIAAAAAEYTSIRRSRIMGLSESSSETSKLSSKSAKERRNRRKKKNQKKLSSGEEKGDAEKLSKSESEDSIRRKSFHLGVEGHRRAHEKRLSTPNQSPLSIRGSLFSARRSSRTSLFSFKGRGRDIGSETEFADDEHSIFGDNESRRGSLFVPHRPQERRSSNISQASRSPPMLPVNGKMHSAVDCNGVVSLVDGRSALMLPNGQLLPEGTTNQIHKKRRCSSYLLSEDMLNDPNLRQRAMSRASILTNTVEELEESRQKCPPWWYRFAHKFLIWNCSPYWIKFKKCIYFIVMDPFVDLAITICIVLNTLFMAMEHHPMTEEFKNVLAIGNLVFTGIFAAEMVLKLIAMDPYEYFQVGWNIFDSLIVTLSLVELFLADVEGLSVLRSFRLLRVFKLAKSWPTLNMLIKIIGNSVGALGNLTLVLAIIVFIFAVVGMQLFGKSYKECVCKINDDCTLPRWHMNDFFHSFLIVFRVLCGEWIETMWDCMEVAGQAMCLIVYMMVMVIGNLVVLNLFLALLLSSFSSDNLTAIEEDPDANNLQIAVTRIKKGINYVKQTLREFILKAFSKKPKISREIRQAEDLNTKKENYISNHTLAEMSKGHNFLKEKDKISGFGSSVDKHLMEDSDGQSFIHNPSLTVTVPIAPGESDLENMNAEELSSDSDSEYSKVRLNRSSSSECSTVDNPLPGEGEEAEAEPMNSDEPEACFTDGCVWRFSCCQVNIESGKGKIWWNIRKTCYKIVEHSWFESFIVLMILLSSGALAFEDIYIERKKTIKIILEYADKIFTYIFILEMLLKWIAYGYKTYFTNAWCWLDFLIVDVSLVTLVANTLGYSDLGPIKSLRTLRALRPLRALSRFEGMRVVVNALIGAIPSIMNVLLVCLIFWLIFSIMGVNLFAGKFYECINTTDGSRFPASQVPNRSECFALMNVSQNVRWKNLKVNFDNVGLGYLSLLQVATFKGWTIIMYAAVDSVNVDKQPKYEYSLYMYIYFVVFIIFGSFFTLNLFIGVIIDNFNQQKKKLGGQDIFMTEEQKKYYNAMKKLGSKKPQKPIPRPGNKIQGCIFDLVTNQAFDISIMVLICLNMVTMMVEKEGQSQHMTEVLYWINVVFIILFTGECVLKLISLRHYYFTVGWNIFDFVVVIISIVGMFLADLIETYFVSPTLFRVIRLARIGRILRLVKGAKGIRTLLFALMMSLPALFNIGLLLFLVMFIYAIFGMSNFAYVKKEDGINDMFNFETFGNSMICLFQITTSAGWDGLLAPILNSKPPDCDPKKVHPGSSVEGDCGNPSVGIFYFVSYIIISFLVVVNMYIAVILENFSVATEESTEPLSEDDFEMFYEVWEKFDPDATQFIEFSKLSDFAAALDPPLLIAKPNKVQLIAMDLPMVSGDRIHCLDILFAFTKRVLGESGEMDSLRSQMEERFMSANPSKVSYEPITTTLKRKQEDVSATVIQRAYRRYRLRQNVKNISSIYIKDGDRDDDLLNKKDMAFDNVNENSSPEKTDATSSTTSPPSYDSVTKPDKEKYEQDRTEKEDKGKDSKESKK
T1 sequence (Q07699 19-218 partner): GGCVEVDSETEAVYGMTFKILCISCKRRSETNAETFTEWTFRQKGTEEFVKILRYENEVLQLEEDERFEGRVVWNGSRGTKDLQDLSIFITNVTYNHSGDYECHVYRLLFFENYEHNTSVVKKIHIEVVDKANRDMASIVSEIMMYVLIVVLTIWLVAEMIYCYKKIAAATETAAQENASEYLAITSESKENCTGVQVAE
T2 sequence (Q15858 1-1977 isoform Q15858-3): as the sequence (Q15858 1-1977 isoform Q15858-3) above
T2 sequence (Q07699 19-218 partner): as the sequence (Q07699 19-218 partner) above

IC50 (hNav1.7)	IC50 (human NaV1.7)	SMILES	IC50 (NaV1.5; read-out: Nav1.5)	IC50 (NaV1.5; [1])
1600 nM	1900 nM	O=C(O)[C@@H]1CCN1C(=O)c1cc(C2CC2)c(OCC23CC4CC(CC(C4)C2)C3)cc1F [Example 86, (S)-1-(4-(adamantan-1-ylmethoxy)-5-cyclopropyl-2-fluorobenzoyl)azetidine-2-carboxylic acid]	26000 nM	
85 nM	1200 nM	C[C@@H]1C[C@@H](C(=O)O)N(C(=O)c2cc(C3CC3)c(OCC34CC5CC(CC(C5)C3)C4)cc2F)C1 [Example 150, (2S,4R)-1-[4-(1-adamantylmethoxy)-5-cyclopropyl-2-fluoro-benzoyl]-4-methyl-pyrrolidine-2-carboxylic acid]	19000 nM	
340 nM	1900 nM	O=C(O)[C@@H]1C[C@H]2C[C@H]2N1C(=O)c1cc(C2CC2)c(OCC23CC4CC(CC(C4)C2)C3)cc1F [Example 60, (1R, 3S, 5R)-2-(4-((adamantan-1-yl)methoxy)-5-cyclopropyl-2-fluorobenzoyl)-2-azabicyclo[3.1.0]hexane-3-carboxylic acid]	13000 nM	
93 nM	1500 nM	C[C@@H](c1cc(Cl)cc(Cl)c1)N1CCC[C@H](COc2cc(F)c(C(=O)N3CCC[C@H]3C(=O)O)cc2C2CC2)C1 (single isomer, unassigned) [Example 73b]	22000 nM	
520 nM	2000 nM	O=C(O)[C@@H]1CCCN1C(=O)c1cc(C2CC2)c(OC2CCN(Cc3cc(Cl)cc(Cl)c3)CC2)cc1F [Example 112, (S)-1-(5-cyclopropyl-4-(1-(3,5-dichlorobenzyl)piperidin-4-yloxy)-2-fluorobenzoyl)pyrrolidine-2-carboxylic acid]		≥ 30000 nM
60 nM	790 nM	O=C(O)[C@@H]1[C@@H](F)CCN1C(=O)c1cc(C2CC2)c(OCC23CC4CC(CC(C4)C2)C3)cc1F [Example 64, (2R,3S)-1-(4-((adamantan-1-yl)methoxy)-5-cyclopropyl-2-fluorobenzoyl)-3-fluoropyrrolidine-2-carboxylic acid]	8500 nM	
360 nM	1300 nM	O=C(c1cc(C2CC2)c(OCC23CC4CC(CC(C4)C2)C3)cc1F)N1CC2CC1(C(=O)O)C2 [Example 176, 3-[4-(1-adamantylmethoxy)-5-cyclopropyl-2-fluoro-benzoyl]-3-azabicyclo[2.1.1]hexane-4-carboxylic acid]	7200 nM	
600 nM	1300 nM	O=C(O)[C@@H]1[C@@H](O)CCN1C(=O)c1cc(C2CC2)c(OCC23CC4CC(CC(C4)C2)C3)cc1F [Example 75, (2S,3S)-1-(4-(adamantan-1-ylmethoxy)-5-cyclopropyl-2-fluorobenzoyl)-3-hydroxypyrrolidine-2-carboxylic acid]	25000 nM	

SMILES	IC50 (hNav1.7)	IC50 (human NaV1.7)	IC50 (NaV1.5; read-out: Nav1.5)	IC50 (NaV1.5; [1])
CC(C)COc1ncc(Oc2cc(F)c(C(=O)N3CCC[C@H]3C(=O)O)cc2Cl)cc1Cl [Example 97, 5-chloro-4-((5-chloro-6-isobutoxypyridin-3-yl)oxy)-2-fluorobenzoyl)-L-proline trifluoroacetic acid salt]	440 nM	570 nM		≥ 30000 nM
